Reference: patent publication US5589483A, “Isoquinoline poly (ADP-ribose) polymerase inhibitors to treat skin diseases associated with cellular senescence” (priority 1994, dated 1996)
pIC50: −log10 of the molar value.

Columns and labels:
[1] = target: Poly (ADP-Ribose) Polymerase (PADPRP); conditions: cited from earlier work; for pIC50: PADPRP Inhibitors, Table 1
[2] = system: human fibroblast cells (W138 cells); experiment: Extension of lifespan and proliferative capacity of human fibroblast cells in culture (cumulative population doublings); format: cell-based
Description: At the time of subdivision, the media was aspirated, and the cells were rinsed with phosphate buffered saline (PBS) and then trypsinized. […] This process was repeated every ~7 days until the cells appeared to stop dividing.

[3] = system: human fibroblasts; conditions: Rattan and Clark, 1994; cited from earlier work

Structure (SMILES)	pIC50 [1]	also measured
NC(=O)c1ccccc1O [2-Hydroxybenzamide]	4.09	–
CCCCCCCC/C=C\CCCCCCCC(=O)O [Oleic acid]	4.09	–
O=c1[nH]c2ccc([N+](=O)[O-])cc2c2ccccc12 [2-Nitro-6(5H)-phenanthridinone]	6.46	–
NC(=O)c1cccc(O)c1 [3-Hydroxybenzamide]	5.04	–
COc1ccccc1C(N)=O [2-Methoxybenzamide]	4.70	–
CCCCC/C=C\C/C=C\C/C=C\C/C=C\CCCC(=O)O [Arachidonic acid]	4.36	–
Cc1cc(O)c2ccccc2n1 [4-Hydroxy-2-methylquinoline]	4.13	–
Nc1cccc2c(=O)[nH][nH]c(=O)c12 [3-Aminophthalhydrazide]	4.64	–
Cc1cccc(C(N)=O)c1 [3-Methylbenzamide]	4.72	–
NC(=O)c1ccccc1 [Benzamide]	4.66	–
Oc1cccc2c(O)nccc12 [1,5-Dihydroxyisoquinoline]	–	proliferative lifespan (maximum achievable cumulative population doublings) ([2]; 100 μM (DMSO concentration 0.1%), W138 cells, FIG. 2): extension of their proliferative lifespan; proliferative capacity of treated cells ([2]; same procedure, FIG. 2, concentration not given): increased proliferative capacity
O=c1[nH]ncc2ccccc12 [1(2H)-Phthalazinone]	4.92	–
CCCCC/C=C\C/C=C\CCCCCCCC(=O)O [Linoleic acid]	4.32	–
NC(=O)c1cccc(C(N)=O)c1 [m-Phthalamide]	4.30	–
O=c1[nH]c(S)nc2ccccc12 [2-Mercapto-4(3H)-quinazolinone]	4.36	–
NC(=O)c1cccc(N)c1 [3-Aminobenzamide]	–	lifespan of treated cells versus control cells ([2]; 10 μM 3-AB, FIG. 1): no effect; lifespan of treated cells versus control cells ([2]; 100 μM 3-AB, FIG. 1): longer lifespan than control cells; lifespan and proliferative capacity of treated cells ([2]; 1 mM 3-AB, FIG. 1): dramatic increase in lifespan and proliferative capacity; maximum achievable cumulative population doublings ([2]; 1 mM 3-AB, W138 cells, FIG. 1): significant increase; days in culture at which cells were still dividing ([2]; 1 mM 3-AB, control cells stopped dividing after about 40 days): > 60 days
O=c1[nH]c(=O)n([C@@H]2O[C@H](CO)[C@@H](O)[C@H]2O)cc1I [5-Iodouridine]	4.37	–
O=c1[nH]cc(I)c(=O)[nH]1 [5-Iodouracil]	4.15	–
Oc1ccnc2ccccc12 [4-Hydroxyquinoline]	4.10	–
Cc1cc(=O)c2ccccc2o1 [2-Methyl-1,4-benzopyrone]	4.35	–
O=c1[nH][nH]c(=O)c2ccccc12 [2,3-Dihydro-1,4-phthalazinedione]	4.52	–
NC(=O)c1cccc(F)c1 [3-Fluorobenzamide]	4.70	–
O=c1[nH][nH]c(=O)c2c([N+](=O)[O-])cccc12 [3-Nitrophthalhydrazide]	4.14	–
c1coc(CNc2ncnc3[nH]cnc23)c1 [kinetin]	–	cell culture lifespan in terms of maximum proliferative capacity in vitro [3]: not accompanied by an increase in cell culture lifespan; onset of aging characteristics [3]: delay the onset of aging characteristics; PADPRP inhibition (in words) ([1]; Althaus and Richter, 1987): weak inhibitor
CC(=O)Nc1cccc(C(N)=O)c1 [3-Acetamidobenzamide]	4.92	–
O=c1[nH]c2ccccc2c2ccccc12 [2H-Benz[c]isoquinolin-1-one]	6.52	–
NC(=O)c1cccnc1 [Nicotinamide]	3.68	–
CC(=O)Nc1ccc(O)c(C(N)=O)c1 [5-Acetamidosalicylamide]	4.35	–
